The test system of one experiment is C. krusei. The class given is cell-based, Candida krusei. Conditions: 48 h. As to the method:
(§1) Two Candida albicans isolates were purchased from the ATCC (No. 24433 and 76615). The other yeast isolates were obtained from the collection of Fondazione Ca' Granda- Ospedale Maggiore Policlinico, Milano. The collection included C. albicans (7 isolates), C. glabrata (3 isolates), and C. krusei (3 isolates). Antifungal susceptibility testing was performed using the broth microdilution method according to the NCCLS M27-A guidelines (National Committee for Clinical Laboratory Standards. 1997, Reference method for broth dilution antifungal susceptibility testing of yeasts and approved standard NCCLS document M27-A. National Committee for Clinical Laboratory Standards, Wayne, Pa.). […] After 48 h of incubation, the plates were inspected for purity. A colony was taken from the agar plate and transferred into 5 mL Sabouraud-dextrose broth and incubated for 48 h at 35°C. Cells were centrifuged at 1,000× g for 10 min and the pellet was washed twice with distilled water. Cells were counted and suspended in RPMI 1640 medium buffered to pH 7.0 with 0.165 mol l^−1 morpholinepropanesulphonic acid (MOPS) buffer (Sigma) to obtain the two times test inoculum (1×10^3 to 5×10^3 CFU/mL). […] The MIC90, i.e. the minimum inhibitory concentrations endpoint were determined as 90% reduction in turbidity measured using a spectrophotometer (Titertek multiscan at 690 nm wave length).

Experiment [1] relates to Candida strains (C. albicans, C. glabrata, C. krusei). As to the kind of experiment: Anti-Candida assay, overall result in words. The class given is cell-based, Candida spp. Conditions: standard culture conditions, broth culture medium. As to the method: as §1
Another experiment deals with C. glabrata. The class given is cell-based, Candida glabrata. The settings on record: 48 h. As to the method: as §1
A further experiment concerns C. albicans. The class given is cell-based, Candida albicans. Conditions: 48 h. As to the method: as §1

≈ marks a conversion by molar mass, not a printed value. Where a SMILES comes first, the peptide text is derived from it.

For `CC(C)[C@H](NC(=O)[C@H](Cc1ccccc1)NC(=O)[C@H](CCCCN)NC(=O)C(C)(C)NC(=O)[C@H](Cc1c[nH]c2ccccc12)NC(=O)[C@H](CCCNC(=N)N)NC(=O)[C@@H](Cc1ccc2ccccc2c1)NC(=O)[C@@H](N)Cc1c[nH]cn1)C(N)=O` [Peptide 1, H-His-D(2′)Nal-Arg-Trp-Aib-Lys-Phe-Val-NH2] (HELM PEPTIDE1{H.[O=C([C@@H](Cc1ccc2ccccc2c1)N[*:1])[*:2]].R.W.[Aib].K.F.V.[am]}$$$$V2.0), the figures for the “MIC 90” value in the experiment with C. krusei and in the experiment on C. glabrata were 97 µM (≈ 112 µg/mL) and over 100 µM, respectively. Further, the “antimicrobial / anti-Candida activity (in words)” value in experiment [1] is listed as “did not show antimicrobial activity”.
For `CCC(CC)(NC(=O)[C@H](Cc1c[nH]c2ccccc12)NC(=O)[C@H](CCCNC(=N)N)NC(=O)[C@@H](Cc1ccc2ccccc2c1)NC(=O)[C@@H](N)Cc1c[nH]cn1)C(=O)N[C@@H](CCCCN)C(=O)N[C@@H](Cc1ccccc1)C(=O)N[C@H](C(N)=O)C(C)C` [Peptide 2, H-His-D(2′)Nal-Arg-Trp-Deg-Lys-Phe-Val-NH2] (HELM PEPTIDE1{H.[O=C([C@@H](Cc1ccc2ccccc2c1)N[*:1])[*:2]].R.W.[CCC(CC)(N[*:1])C(=O)[*:2]].K.F.V.[am]}$$$$V2.0), the “MIC 90” value in the experiment with C. albicans, with C. krusei and against C. glabrata was over 100 µM in each case. The “antimicrobial / anti-Candida activity (in words)” value in experiment [1] is reported as “did not show antimicrobial activity”.
In the case of `CC(C)[C@H](NC(=O)[C@H](Cc1ccccc1)NC(=O)[C@H](CCCCN)NC(=O)C1(NC(=O)[C@H](Cc2c[nH]c3ccccc23)NC(=O)[C@H](CCCNC(=N)N)NC(=O)[C@@H](Cc2ccc3ccccc3c2)NC(=O)[C@@H](N)Cc2c[nH]cn2)CCC1)C(N)=O` [Peptide 5, H-His-D(2′)Nal-Arg-Trp-Ac4c -Lys-Phe-Val-NH2] (HELM PEPTIDE1{H.[O=C([C@@H](Cc1ccc2ccccc2c1)N[*:1])[*:2]].R.W.[O=C(C1(N[*:1])CCC1)[*:2]].K.F.V.[am]}$$$$V2.0), the results for the “MIC 90” value against C. krusei and against C. glabrata were 99 µM (≈ 115 µg/mL) and over 100 µM, respectively. For the same compound, the “antimicrobial / anti-Candida activity (in words)” value in experiment [1] was “weak activity”.
In the same order, the values of `CC(C)[C@H](NC(=O)[C@H](Cc1ccccc1)NC(=O)[C@H](CCCCN)NC(=O)C1(NC(=O)[C@H](Cc2c[nH]c3ccccc23)NC(=O)[C@H](CCCNC(=N)N)NC(=O)[C@@H](Cc2ccc3ccccc3c2)NC(=O)[C@@H](N)Cc2c[nH]cn2)CCCC1)C(N)=O` [Peptide 6, H-His-D(2′)Nal-Arg-Trp-Ac5c-Lys-Phe-Val-NH2] (HELM PEPTIDE1{H.[O=C([C@@H](Cc1ccc2ccccc2c1)N[*:1])[*:2]].R.W.[O=C(C1(N[*:1])CCCC1)[*:2]].K.F.V.[am]}$$$$V2.0) are over 100 µM, over 100 µM and “substantial activity”.
For `CC(C)[C@H](NC(=O)[C@H](Cc1ccccc1)NC(=O)[C@H](CCCCN)NC(=O)C1(NC(=O)[C@H](Cc2c[nH]c3ccccc23)NC(=O)[C@H](CCCNC(=N)N)NC(=O)[C@@H](Cc2ccc3ccccc3c2)NC(=O)[C@@H](N)Cc2c[nH]cn2)CCCCC1)C(N)=O` [Peptide 7, H-His-D(2′)Nal-Arg-Trp-Ac6c -Lys-Phe-Val-NH2] (HELM PEPTIDE1{H.[O=C([C@@H](Cc1ccc2ccccc2c1)N[*:1])[*:2]].R.W.[O=C(C1(N[*:1])CCCCC1)[*:2]].K.F.V.[am]}$$$$V2.0), the “MIC 90” value in the experiment on C. albicans is given as 51 µM (≈ 60.9 µg/mL); in the experiment on C. glabrata, over 100 µM. In addition, in experiment [1], the “antimicrobial / anti-Candida activity (in words)” value is listed as “substantial activity”.
Regarding `CC(C)[C@H](NC(=O)[C@H](Cc1ccccc1)NC(=O)[C@H](CCCCN)NC(=O)CCNC(=O)[C@H](Cc1c[nH]c2ccccc12)NC(=O)[C@H](CCCNC(=N)N)NC(=O)[C@@H](Cc1ccc2ccccc2c1)NC(=O)[C@@H](N)Cc1c[nH]cn1)C(N)=O` [Peptide 11, H-His-D(2′)Nal-Arg-Trp-βAla-Lys-Phe-Val-NH2] (HELM PEPTIDE1{H.[O=C([C@@H](Cc1ccc2ccccc2c1)N[*:1])[*:2]].R.W.[bAla].K.F.V.[am]}$$$$V2.0), the “MIC 90” value in the experiment on C. albicans, with C. krusei and against C. glabrata was over 100 µM each time. For the same compound, in experiment [1], the “antimicrobial / anti-Candida activity (in words)” value is recorded as “no anti-Candida activity”.
`CC(C)[C@H](NC(=O)[C@H](Cc1ccccc1)NC(=O)[C@H](CCCCN)NC(=O)[C@@H]1CCC[C@H]1NC(=O)[C@H](Cc1c[nH]c2ccccc12)NC(=O)[C@H](CCCNC(=N)N)NC(=O)[C@@H](Cc1ccc2ccccc2c1)NC(=O)[C@@H](N)Cc1c[nH]cn1)C(N)=O` [Peptide 12, H-His-D(2′)Nal-Arg-Trp-Acpc-Lys-Phe-Val-NH2] (HELM PEPTIDE1{H.[O=C([C@@H](Cc1ccc2ccccc2c1)N[*:1])[*:2]].R.W.[O=C([C@@H]1CCC[C@H]1N[*:1])[*:2]].K.F.V.[am]}$$$$V2.0): the “MIC 90” value in the experiment with C. albicans, against C. krusei and against C. glabrata was over 100 µM in each case. Moreover, the “antimicrobial / anti-Candida activity (in words)” value in experiment [1] is reported as “no anti-Candida activity”.
As to `CC(C)[C@H](NC(=O)[C@H](Cc1ccccc1)NC(=O)[C@H](CCCCN)NC(=O)CNC(=O)CNC(=O)[C@H](Cc1c[nH]c2ccccc12)NC(=O)[C@H](CCCNC(=N)N)NC(=O)[C@@H](Cc1ccc2ccccc2c1)NC(=O)[C@@H](N)Cc1c[nH]cn1)C(N)=O` [Peptide 13, H-His-D(2′)Nal-Arg-Trp-Gly-Gly-Lys-Phe-Val-NH2] (HELM PEPTIDE1{H.[O=C([C@@H](Cc1ccc2ccccc2c1)N[*:1])[*:2]].R.W.G.G.K.F.V.[am]}$$$$V2.0), the “MIC 90” value against C. albicans, with C. krusei and in the experiment on C. glabrata was over 100 µM throughout. In addition, the “antimicrobial / anti-Candida activity (in words)” value in experiment [1] is reported as “no activity”.
